CC50 and solubility data for 9 compounds are collected here from patent publication US7615361B2, “Toxicity screening methods” (Ceetox, Inc., priority 2006, dated 2009).

Values after ≈ are worked out from the molar mass of the structure shown. Where two headings read alike, the source gives them in different places.

The nature of series [1]: MemTox membrane leakage (AK / α-GST). The series is classed as cell-based, rat. On the procedure: (§1) One test compound (Compound A) was received as dry powder and evaluated for potential cytotoxicity in a battery of in vitro assays. The compound was tested using both rat cardiomyocytes (CM) from rat neonates and a rat hepatoma (H4IIE) cell line. […] The cell supernatant or the cells themselves were harvested for biochemical analysis. General cytotoxicity was evaluated by monitoring membrane integrity, mitochondrial function, cell proliferation, oxidative stress, and apoptosis. In addition, interaction with P-glycoprotein (PgP) on H4IIE cells and solubility of the test compound were also assessed. The means of each exposure group (n=3-7) were calculated for each assay performed.
Membrane Leakage (α-Glutathione S-transferase and/or Adenylate Kinase): The presence of Adenylate Kinase (AK) or α-Glutathione S-transferase (α-GST), both enzyme leakage markers, was measured in the culture medium using an activity assay for Adenylate Kinase and/or an ELISA assay for α-GST. At the end of the exposure period, the medium covering the cells in each well was removed and placed into new 96-well plates with appropriate labeling. […] Luminescence (AK) values were measured with a Packard Fusion or equivalent plate reader, and absorbance (α-GST) values were measured with a Packard SpectraCount™ or equivalent reader at 450 nm and reference absorbance at 650 nm.
Membrane Leakage (α-Glutathione S-transferase and/or Adenylate Kinase): Leakage of Adenylate Kinase or α-GST from the cell into the culture medium was determined by collecting the culture medium at the end of the exposure period. Thus, the values measured represent total enzyme leakage lost over the exposure period. The control for 100% dead or maximum enzyme release was based on cells treated with 1 mM digitonin at the time of dosing. Percent dead cells relative to digitonin treated cells was determined and then subtracted from 100% to yield the percent live cells.

A short description of series [2]: Intracellular ATP levels. The series is classed as cell-based, rat. How it is done:
as §1
Intracellular ATP Levels: Cellular Adenosine triphosphate (ATP) was determined with an assay based on a reaction between ATP+D-luciferin+oxygen catalyzed by luciferase to yield Oxyluciferin+AMP+PPi+CO2+light. The emitted light is proportional to the amount of ATP present. […] In addition, a unique cell lysis reagent inhibits endogenous ATPases and therefore stabilizes cellular ATP by preventing its degradation to ADP. ATP is present in all-living cells and declines rapidly upon cell death. In addition, this assay in combination with the MTT assay provides an indicator of mitochondrial activity and energy status of the cell.
Plates were analyzed immediately or stored at −20° C. until needed. On the day of analysis, the plates were thawed and calibration curve prepared with ATP in the same liquid matrix as samples. ATP was quantified by adding ATP substrate solution and then reading luminescence on a Packard Fusion Luminescence or equivalent plate reader.
Intracellular ATP Levels: ATP levels in treated cells could be determined by using the regression coefficients obtained from the linear regression analysis of the calibration curve. Thus, values could be expressed as pmoles ATP/million cells. Background corrected luminescence was used to determine percent change relative to controls by dividing treated values by control values and multiplying by 100.

Series [3] is described as follows: Solubility in culture medium (nephelometry). The series is classed as physicochemical. How it is done:
Solubility: The test compounds were prepared in DMSO and the appropriate amounts were then added to complete medium containing 10% bovine serum […] at 37° C. The samples were evaluated using a light scattering technique and a Nephaloskan instrument.
Solubility Assay: The test compounds were prepared in DMSO and the appropriate amounts were then added to complete medium containing 10% bovine serum at 37° C. The samples were evaluated using a light scattering technique and a Nephaloskan instrument.

Series [4] is described as follows: Intracellular total glutathione (GSH). Particulars: rat. The format is cell-based, rat. How it is done:
as §1

The nature of series [5]: Intracellular total glutathione (GSH). The series is classed as cell-based, rat. The following applies: rat. On the procedure: as §1
(§2) Experimental Protocol: The test compound was provided and stored at 4° C. until needed. Dosing solutions were prepared in complete culture medium. The rat hepatoma (H4IIE) cell line was used as the test system.
The source holds these as a separate data set.

Series [6] can be described thus: MTT reduction. The series is classed as cell-based, rat. On the procedure:
as §1
Tetrazolium Dye Reduction: 3-[4,5-dimethylthiazol-2-yl]
(In general: Tetrazolium dyes change colour on reduction, which living cells bring about.)

The nature of series [7]: Cell number (propidium iodide). The format is cell-based, rat. The following applies: rat. How it is done: as §1, §2
Cell Proliferation: Cell proliferation in each well was measured with propidium iodide (PI). This specific nucleic acid binding dye fluoresces when intercalated within the nucleic acids. The 15 nm shift enhances PI fluorescence approximately 20 times while the excitation maxima are shifted 30-40 nm. During method development experiments, it was determined that Triton-X-100 was the best solution to permeabilize the H4IIE cells thereby allowing the PI access to intracellular RNA and DNA. Fluorescence was measured using a Packard Fusion plate reader or equivalent reader at 540 nm excitation and 610 nm emission.
Cell Proliferation: After incubation, the test compound was removed and Triton X-100 solution containing propidium iodide is added. The plate was incubated and read on a fluorescent plate reader. Data was collected as relative fluorescent units (RFU). The blank was subtracted from the final well RFU. It represents the average of the first and last columns which contain no cells on that particular plate. The controls are untreated cells allowed to grow on the same plate. The compounds are represented by several separate RFU data points for each of the tested concentrations. The percent change relative to controls was calculated by dividing the average RFU by the control cell RFU and multiplying by 100.

[8] abbreviates: dosing medium with 20% serum, 37° C., CM 24 HR, read-out: Highest Soluble Concentration Tested.
The mark [9] stands for this setting: dosing medium with 20% serum, 37° C., H4IIE 24 HR, read-out: Highest Soluble Concentration Tested.
The mark [10] stands for this setting: 37 °C, plasma or biological fluid, kinetic from dmso stock, dosing medium with 20% serum, 37° C., CM 24 HR, read-out: Highest Soluble Concentration Tested.
Where [11] appears, read: 37 °C, plasma or biological fluid, kinetic from dmso stock, dosing medium with 20% serum, 37° C., H4IIE 24 HR, read-out: Highest Soluble Concentration Tested.
Where [12] appears, read: dosing (complete culture) medium with 20% serum, plasma or biological fluid, kinetic from dmso stock, dosing medium with 20% serum, 37° C., CM 24 HR, read-out: Highest Soluble Concentration Tested.

Take `Nc1nc(NC2CC2)c2ncn([C@H]3C=C[C@@H](CO)C3)c2n1` [ABACAVIR, abacavir]: the CC50 at 24 h in series [1] (rat) is above 300 µM; in series [2] (rat) it was 165 µM; in series [4] it was above 300 µM; in series [5] (Total GSH TC50) it was 213 µM; in series [6] (rat), above 300 µM; in series [7] (Cell Number TC50), above 300 µM. In addition, the solubility in series [3] (setting [8]) and in series [3] (setting [9]) was 300 µM (≈ 85.9 µg/mL) in each case.

With `COc1cccc2c1C(=O)c1c(O)c3c(c(O)c1C2=O)C[C@@](O)(C(=O)CO)C[C@@H]3O[C@H]1C[C@H](N)[C@H](O)[C@H](C)O1` [ADRIAMYCIN, Adriamycin], the CC50 at 1 h in series [1] (rat), in series [2] (rat), in series [4] and in series [6] (rat) was above 300 µM throughout. The CC50 at 3 h in series [1] (rat) is above 300 µM; in series [2] (rat), 62 µM; in series [4] it was 61 µM; in series [6] (rat), 41 µM. Besides, the CC50 at 6 h in series [1] (rat) was determined as 40 µM; in series [2] (rat), 29 µM; in series [4], 23 µM; in series [6] (rat), 18 µM. Further, the CC50 at 24 h in series [1] (rat) came to 7 µM; in series [2] (rat) it was 6 µM; in series [4], 1 µM; in series [5] (Total GSH TC50), 28 µM; in series [6] (rat), 1 µM; in series [7] (Cell Number TC50) it was 18 µM. The solubility came to 100 µM (≈ 54.4 µg/mL) in series [3] (37 °C, plasma or biological fluid, kinetic from dmso stock, dosing medium with 20% serum, 37° C., CM 1 HR, read-out: Highest Soluble Concentration Tested); 100 µM (≈ 54.4 µg/mL) in series [3] (37 °C, plasma or biological fluid, kinetic from dmso stock, dosing medium with 20% serum, 37° C., CM 3 HR, read-out: Highest Soluble Concentration Tested); 100 µM (≈ 54.4 µg/mL) in series [3] (37 °C, plasma or biological fluid, kinetic from dmso stock, dosing medium with 20% serum, 37° C., CM 6 HR, read-out: Highest Soluble Concentration Tested); 100 µM (≈ 54.4 µg/mL) in series [3] (setting [10]); 100 µM (≈ 54.4 µg/mL) in series [3] (setting [11]); 300 µM (≈ 163 µg/mL) in series [3] (dosing medium with 20% serum, 37° C., H4IIE 24 HR, listed as DOXORUBICIN, read-out: Highest Soluble Concentration Tested).

On to `CC[C@@]1(O)C(=O)OCc2c1cc1n(c2=O)Cc2cc3ccccc3nc2-1` [CAMPTOTHECIN, Camptothecin], for which the CC50 at 24 h was above 300 µM in series [1] (neonatal rat cardiomyocytes, rat cardiomyocytes (CM), 24 HR exposure, read-out: MemTox TC50); above 300 µM in series [2] (neonatal rat cardiomyocytes, rat cardiomyocytes (CM), 24 HR exposure, read-out: ATP TC50); above 300 µM in series [4] (neonatal rat cardiomyocytes, CM, 24 HR, read-out: Total GSH TC50); 3 µM in series [5] (H4IIE rat hepatoma cells, H4IIE, 24 HR, read-out: Total GSH TC50); above 300 µM in series [6] (neonatal rat cardiomyocytes, rat cardiomyocytes (CM), 24 HR exposure, read-out: MTT TC50); 4 µM in series [7] (H4IIE rat hepatoma cells, H4IIE, 24 HR exposure, read-out: Cell Number TC50). The solubility in series [3] (culture medium with 20% serum, 37 °C, plasma or biological fluid, kinetic from dmso stock, culture media containing 20% serum, NRK 6 HR, read-out: Highest Soluble Concentration) is 50 µM (≈ 17.4 µg/mL); in series [3] (setting [12]), 10 µM (≈ 3.48 µg/mL); in series [3] (dosing medium (complete culture medium with serum), plasma or biological fluid, kinetic from dmso stock, dosing medium, 37° C., SK-MEL28 24 HR, read-out: Highest Soluble Concentration) it was 10 µM (≈ 3.48 µg/mL); in series [3] (plasma or biological fluid, kinetic from dmso stock, dosing medium, 37° C., HUVEC 24 HR, read-out: Highest Soluble Concentration), 10 µM (≈ 3.48 µg/mL).

`COc1cccc2c1C(=O)c1c(O)c3c(c(O)c1C2=O)C[C@@](O)(C(C)=O)C[C@@H]3O[C@H]1C[C@H](N)[C@H](O)[C@H](C)O1` [DAUNORUBICIN, daunorubicin]: the CC50 at 24 h is 4 µM in series [1] (rat); 9 µM in series [2] (rat); below 1 µM in series [4]; 16 µM in series [5]; 6 µM in series [6] (rat); 8 µM in series [7]. Also, the solubility in series [3] (plasma or biological fluid, kinetic from dmso stock, dosing medium with 20% serum, 37° C., CM 24 HR, read-out: Highest Soluble Concentration Tested) was 100 µM (≈ 52.8 µg/mL).

Take `CC(C)Nc1cccnc1N1CCN(C(=O)c2cc3cc(NS(C)(=O)=O)ccc3[nH]2)CC1` [DELAVIRDINE, delavirdine]: the CC50 at 24 h is 239 µM in series [1] (rat); 166 µM in series [2] (rat); above 300 µM in series [4]; 96 µM in series [5] (Total GSH TC50); 252 µM in series [6] (rat); above 300 µM in series [7] (Cell Number TC50). The solubility in series [3] (setting [8]) and in series [3] (setting [9]) was 300 µM (≈ 137 µg/mL) each time.

Regarding `O=C1Nc2ccc(Cl)cc2[C@@](C#CC2CC2)(C(F)(F)F)O1` [EFAVIRENZ, efavirenz], the CC50 at 24 h in series [1] (rat) stood at 69 µM; in series [2] (rat), 75 µM; in series [4] it was 83 µM; in series [5] (Total GSH TC50), 170 µM; in series [6] (rat), 79 µM; in series [7] (Cell Number TC50), 169 µM. In addition, the solubility in series [3] (setting [8]) and in series [3] (setting [9]) was 300 µM (≈ 94.7 µg/mL) throughout.

Consider `COc1cccc2c1C(=O)c1c(O)c3c(c(O)c1C2=O)C[C@@](O)(C(=O)CO)C[C@@H]3O[C@H]1C[C@H](N)[C@@H](O)[C@H](C)O1` [EPIRUBICIN, epirubicin], for which the CC50 at 24 h in series [1] (rat) stood at 35 µM; in series [2] (rat), 19 µM; in series [4] it was 13 µM; in series [5] (Total GSH TC50), 52 µM; in series [6] (rat) it was 16 µM; in series [7] (Cell Number TC50), 31 µM. Also, the solubility in series [3] (setting [11]) is 100 µM (≈ 54.4 µg/mL); in series [3] (setting [8]), 300 µM (≈ 163 µg/mL).

As to `CC(=O)[C@]1(O)Cc2c(O)c3c(c(O)c2[C@@H](O[C@H]2C[C@H](N)[C@H](O)[C@H](C)O2)C1)C(=O)c1ccccc1C3=O` [IDARUBICIN, idarubicin], the CC50 at 24 h in series [1] (rat) was below 1 µM; in series [2] (rat), 2 µM; in series [4], below 1 µM; in series [5] (Total GSH TC50) it was 4 µM; in series [6] (rat), below 1 µM; in series [7] (Cell Number TC50), 4 µM. In series [3] (setting [12]), the solubility stood at 20 µM (≈ 9.95 µg/mL).

Regarding `Cc1cccc(C)c1OCC(=O)N[C@@H](Cc1ccccc1)[C@@H](O)C[C@H](Cc1ccccc1)NC(=O)[C@H](C(C)C)N1CCCNC1=O` [LOPINAVIR, lopinavir], the CC50 at 24 h in series [1] (rat) was 76 µM; in series [2] (rat) it was 72 µM; in series [4], 69 µM; in series [5] (Total GSH TC50), 99 µM; in series [6] (rat), 72 µM; in series [7] (Cell Number TC50), above 300 µM. Besides, the solubility in series [3] (setting [10]) and in series [3] (setting [11]) was 50 µM (≈ 31.4 µg/mL) throughout.
